Reference: ChEMBL document CHEMBL4725412, “Augmenting the Activity of Macrolide Adjuvants against Acinetobacter baumannii” (2020)
Calls of active or inactive are those of the source. The rule behind the calls is not given here.

Experiments:
Acinetobacter baumannii [1] = assay: Potentiation of clarithromycin-induced antibacterial activity against Acinetobacter baumannii AB5075 assessed as fold reduction in clarithromycin MIC at 30 uM incubated for 16 hrs in presence of clarithromycin by broth microdilution method; assay type: functional
Acinetobacter baumannii [2] = assay: Antibacterial activity against Acinetobacter baumannii AB5075 assessed as reduction in microbial growth incubated for 16 hrs by broth microdilution method; assay type: functional
Acinetobacter baumannii [3] = assay: Potentiation of clarithromycin-induced antibacterial activity against Acinetobacter baumannii AB5075 assessed as clarithromycin MIC at 10 uM incubated for 16 hrs by broth microdilution method (reference value: […] ug/ml); assay type: functional
Acinetobacter baumannii [4] = assay: Potentiation of clarithromycin-induced antibacterial activity against Acinetobacter baumannii AB5075 assessed as clarithromycin MIC at 7.5 uM incubated for 16 hrs by broth microdilution method (reference value: […] ug/ml); assay type: functional
Acinetobacter baumannii [5] = assay: Potentiation of clarithromycin-induced antibacterial activity against Acinetobacter baumannii AB5075 assessed as fold reduction in clarithromycin MIC at 10 uM incubated for 16 hrs in presence of clarithromycin by broth microdilution method; assay type: functional
Acinetobacter baumannii [6] = assay: Potentiation of clarithromycin-induced antibacterial activity against Acinetobacter baumannii AB5075 assessed as fold reduction in clarithromycin MIC at 7.5 uM incubated for 16 hrs in presence of clarithromycin broth microdilution method; assay type: functional
Acinetobacter baumannii [7] = assay: Potentiation of clarithromycin-induced antibacterial activity against Acinetobacter baumannii AB5075 assessed as clarithromycin MIC at 15 uM incubated for 16 hrs by broth microdilution method (reference value: […] ug/ml); assay type: functional
Acinetobacter baumannii [8] = assay: Potentiation of clarithromycin-induced antibacterial activity against Acinetobacter baumannii AB5075 assessed as clarithromycin MIC at 20 uM incubated for 16 hrs by broth microdilution method (reference value: […] ug/ml); assay type: functional
Acinetobacter baumannii [9] = assay: Potentiation of clarithromycin-induced antibacterial activity against Acinetobacter baumannii AB5075 assessed as clarithromycin MIC at 5 uM incubated for 16 hrs by broth microdilution method (reference value: […] ug/ml); assay type: functional
Acinetobacter baumannii [10] = assay: Potentiation of clarithromycin-induced antibacterial activity against Acinetobacter baumannii AB5075 assessed as fold reduction in clarithromycin MIC at 20 uM incubated for 16 hrs in presence of clarithromycin by broth microdilution method; assay type: functional
Acinetobacter baumannii [11] = assay: Potentiation of clarithromycin-induced antibacterial activity against Acinetobacter baumannii AB5075 assessed as fold reduction in clarithromycin MIC at 5 uM incubated for 16 hrs in presence of clarithromycin by broth microdilution method; assay type: functional
Acinetobacter baumannii [12] = assay: Potentiation of clarithromycin-induced antibacterial activity against Acinetobacter baumannii AB5075 assessed as clarithromycin MIC at […] incubated for 16 hrs by broth microdilution method (reference value: […] ug/ml); assay type: functional; details: dose 30 µM
Acinetobacter baumannii [13] = assay: Antibacterial activity against Acinetobacter baumannii AB5075 assessed as reduction in microbial growth after 2 days by broth microdilution method; assay type: functional; details: AB5075, 48 h, time 2 day
Acinetobacter baumannii [14] = assay: Antibacterial activity against Acinetobacter baumannii AB5075 assessed as reduction in microbial growth after 6 days by broth microdilution method; assay type: functional; details: AB5075, 144 h, time 6 day
Acinetobacter baumannii [15] = assay: Antibacterial activity against Acinetobacter baumannii AB5075 assessed as reduction in microbial growth after 9 days by broth microdilution method; assay type: functional; details: AB5075, 216 h, time 9 day
Acinetobacter baumannii [16] = assay: Potentiation of clarithromycin-induced antibacterial activity against Acinetobacter baumannii AB5075 assessed as clarithromycin MIC at 25 uM incubated for 16 hrs by broth microdilution method (reference value: […] ug/ml); assay type: functional
Acinetobacter baumannii [17] = assay: Potentiation of Colistin-induced Acinetobacter baumannii AB5075 assessed as Colistin MIC at 30 uM by broth microdilution method; assay type: functional, organism-based

SMILES: Cl.Nc1ncc(-c2ccc(NC(=O)c3ccc(Cl)cc3Cl)cc2)[nH]1
- fold change (FC) (Acinetobacter baumannii [1]): 8
- MIC (Acinetobacter baumannii [2]): ≥ 200 µM

SMILES: Nc1ncc(-c2ccc(NC(=O)c3cccc(I)c3)cc2)[nH]1
- MIC (Acinetobacter baumannii [2]): ≥ 200 µM

SMILES: Nc1ncc(-c2ccc(NC(=O)c3cc(I)c(I)c(I)c3)cc2)[nH]1
- MIC (Acinetobacter baumannii [2]): ≥ 200 µM

SMILES: Cl.Nc1nc(-c2ccc(NC(=O)c3ccc(Cl)c(C(F)(F)F)c3)cc2F)c[nH]1
- MIC (Acinetobacter baumannii [3]): 2 µg/mL
- MIC (Acinetobacter baumannii [4]): 8 µg/mL
- fold change (FC) (Acinetobacter baumannii [5]): 16
- fold change (FC) (Acinetobacter baumannii [6]): 4
- MIC (Acinetobacter baumannii [2]): 50 µM
- MIC (Acinetobacter baumannii [7]): 0.25 µg/mL

SMILES: Cl.Nc1nc(-c2ccc(NC(=O)Nc3ccc(Cl)c(Cl)c3)cc2)c[nH]1
- MIC (Acinetobacter baumannii [8]): 0.0625 µg/mL
- MIC (Acinetobacter baumannii [3]): 0.25 µg/mL
- MIC (Acinetobacter baumannii [9]): 8 µg/mL
- MIC (Acinetobacter baumannii [4]): 2 µg/mL
- fold change (FC) (Acinetobacter baumannii [10]): >=512
- fold change (FC) (Acinetobacter baumannii [1]): >=512
- fold change (FC) (Acinetobacter baumannii [11]): 4
- fold change (FC) (Acinetobacter baumannii [6]): 16
- MIC (Acinetobacter baumannii [12]): 0.0625 µg/mL
- MIC (Acinetobacter baumannii [2]): 100 µM
- MIC (Acinetobacter baumannii [7]): 0.125 µg/mL

SMILES: Cc1ccc(C(=O)Nc2ccc(-c3c[nH]c(N)n3)cc2)cc1F
- MIC (Acinetobacter baumannii [3]): 1 µM
- MIC (Acinetobacter baumannii [9]): 16 µM
- MIC (Acinetobacter baumannii [2]): 50 µM

SMILES: Nc1nc(-c2ccc(NC(=O)c3cc(F)c(F)c(F)c3)cc2)c[nH]1
- MIC (Acinetobacter baumannii [8]): 8 µM
- MIC (Acinetobacter baumannii [3]): 32 µM
- MIC (Acinetobacter baumannii [2]): 100 µM

SMILES: CC[C@H]1OC(=O)[C@H](C)[C@@H](O[C@H]2C[C@@](C)(OC)[C@@H](O)[C@H](C)O2)[C@H](C)[C@@H](O[C@@H]2O[C@H](C)C[C@H](N(C)C)[C@H]2O)[C@](C)(OC)C[C@@H](C)C(=O)[C@H](C)[C@@H](O)[C@]1(C)O [CLARITHROMYCIN]
- MIC (Acinetobacter baumannii [13]): ≥ 128 µg/mL
- MIC (Acinetobacter baumannii [14]): 512 µg/mL
- MIC (Acinetobacter baumannii [15]): 512 µg/mL

SMILES: Nc1nc(-c2ccc(NC(=O)c3c(F)c(F)c(F)c(F)c3F)cc2)c[nH]1
- MIC (Acinetobacter baumannii [2]): ≥ 200 µM

SMILES: Nc1nc(-c2ccc(NC(=O)c3ccc(F)cc3)cc2)c[nH]1
- MIC (Acinetobacter baumannii [2]): ≥ 200 µM

SMILES: Cl.Nc1nc(-c2ccc(NC(=O)c3cc(Cl)cc(Cl)c3)c(Cl)c2)c[nH]1
- fold change (FC) (Acinetobacter baumannii [1]): 2
- MIC (Acinetobacter baumannii [12]): 8 µg/mL
- MIC (Acinetobacter baumannii [2]): > 200 µM

SMILES: Cc1ccc(C(=O)Nc2ccc(-c3c[nH]c(N)n3)cc2)cc1Cl
- MIC (Acinetobacter baumannii [9]): 16 µM
- MIC (Acinetobacter baumannii [2]): 25 µM

SMILES: Nc1nc(-c2ccc(NC(=O)c3c(Cl)cc(Cl)cc3Cl)cc2)c[nH]1
- MIC (Acinetobacter baumannii [8]): 16 µM
- MIC (Acinetobacter baumannii [16]): 8 µM
- MIC (Acinetobacter baumannii [3]): 32 µM
- MIC (Acinetobacter baumannii [2]): 100 µM

SMILES: Cc1cc(NC(=O)c2cc(Cl)cc(Cl)c2)ccc1-c1c[nH]c(N)n1.Cl
- MIC (Acinetobacter baumannii [8]): 0.5 µg/mL
- MIC (Acinetobacter baumannii [3]): 8 µg/mL
- fold change (FC) (Acinetobacter baumannii [5]): 4
- fold change (FC) (Acinetobacter baumannii [10]): 64
- fold change (FC) (Acinetobacter baumannii [1]): 64
- MIC (Acinetobacter baumannii [12]): 0.5 µg/mL
- MIC (Acinetobacter baumannii [2]): > 200 µM

SMILES: Nc1nc(-c2ccc(NC(=O)c3ccc(Br)cc3)cc2)c[nH]1
- MIC (Acinetobacter baumannii [2]): ≥ 200 µM
- Activity (Acinetobacter baumannii [17]): inactive

SMILES: Nc1nc(-c2ccc(NC(=O)c3cc(Cl)c(Br)c(Cl)c3)cc2)c[nH]1
- MIC (Acinetobacter baumannii [8]): 0.25 µM
- MIC (Acinetobacter baumannii [3]): 0.25 µM
- MIC (Acinetobacter baumannii [2]): ≥ 200 µM

SMILES: Cl.Nc1ncc(-c2ccc(NC(=O)c3cccc(Cl)c3Cl)cc2)[nH]1
- fold change (FC) (Acinetobacter baumannii [1]): 4
- MIC (Acinetobacter baumannii [2]): ≥ 200 µM

SMILES: Nc1nc(-c2ccc(NC(=O)c3ccc(C(F)(F)F)cc3)cc2)c[nH]1
- MIC (Acinetobacter baumannii [2]): ≥ 200 µM

SMILES: Cc1cc(C)cc(C(=O)Nc2ccc(-c3c[nH]c(N)n3)cc2)c1.Cl
- MIC (Acinetobacter baumannii [12]): 2 µg/mL
- MIC (Acinetobacter baumannii [2]): ≥ 200 µM
- Activity (Acinetobacter baumannii [17]): inactive

SMILES: Cl.Nc1nc(-c2ccc(NC(=O)c3cc(Cl)cc(Cl)c3)cc2F)c[nH]1
- MIC (Acinetobacter baumannii [8]): 0.25 µg/mL
- MIC (Acinetobacter baumannii [3]): 0.5 µg/mL
- MIC (Acinetobacter baumannii [9]): 8 µg/mL
- MIC (Acinetobacter baumannii [4]): 4 µg/mL
- fold change (FC) (Acinetobacter baumannii [5]): 64
- fold change (FC) (Acinetobacter baumannii [1]): 128
- fold change (FC) (Acinetobacter baumannii [11]): 4
- fold change (FC) (Acinetobacter baumannii [6]): 8
- MIC (Acinetobacter baumannii [12]): 0.5 µg/mL
- MIC (Acinetobacter baumannii [2]): > 200 µM
